Measurements taken from ChEMBL document CHEMBL1125760, “4-(Tetrazolylalkyl)piperidine-2-carboxylic acids. Potent and selective N-methyl-D-aspartic acid receptor antagonists with a short duration of action” (J Med Chem, 1991).

Assays:
[1] = tested on: Mus musculus; assay: Tested for antagonism of NMDA induced lethality in neonatal mice (ip) and minimum effective dose (MED) was reported; type: functional; conditions: read-out: MED
[2] = target: Glutamate NMDA receptor; assay: Compound was evaluated in vitro in a cortical-wedge preparation for the antagonism of N-methyl-D-aspartate-induced responses; type: functional
[3] = tested on: Rattus norvegicus; assay: Tested for antagonism of NMDA induced convulsions in neonatal rats (ip) and minimum effective dose (MED) was reported; type: functional; conditions: read-out: MED
[4] = target: Glutamate NMDA receptor; assay: In vitro binding affinity against N-methyl-D-aspartate glutamate receptor using [3H]CGS-19,755 ligand; type: protein-complex assay

| Compound | minimal effective dose [1] [mg/kg] | IC50 [2] [µM] | minimal effective dose [3] [mg/kg] | IC50 [4] [µM] |
| --- | --- | --- | --- | --- |
| O=C(O)[C@H]1C[C@@H](Cc2nnn[nH]2)CCN1 | 5 | 4.2 | 20 |  |
| O=C(O)[C@@H]1C[C@H](CCc2nn[nH]n2)CCN1 | 20 | 8.1 | 100 | 2.28 |
| O=C(O)[C@@H]1C[C@H](CCCCc2nn[nH]n2)CCN1 | > 160 |  |  | > 10 |
| O=C(O)[C@@H]1C[C@H](CCCc2nn[nH]n2)CCN1 | 10 | 12.4 | 100 |  |
| O=C(O)[C@H]1C[C@H](Cc2nn[nH]n2)CCN1 | 80 | 35.2 |  | 0.777 |
| CN1CC[C@H](Cc2nn[nH]n2)C[C@@H]1C(=O)O | > 160 |  |  | > 10 |
| O=C(O)[C@@H]1C[C@H](CP(=O)(O)O)CCN1 [SELFOTEL] | 1.25 | 1.7 | 5 |  |
